Assay results taken from publication doi:10.1101/2023.10.20.563248v1 (biorxiv, 2023).

Tests used:
Conditions in all cases: 1 µM; inhibitor
AKT2 = AKT2 (Homo sapiens, UniProt P31751)
ASK1 = ASK1 (Homo sapiens, UniProt Q99683)
AXL = AXL (Homo sapiens, UniProt P30530)
BRSK2 = BRSK2 (Homo sapiens, UniProt Q8IWQ3)
CAMK2G = CAMK2G (Homo sapiens, UniProt Q13555)
CDK18 = CDK18 (Homo sapiens, UniProt Q07002)
CDK2/CycD1 = CDK2/CycD1 (Homo sapiens, UniProt P24941)
CDK4 = CDK4 (Homo sapiens, UniProt P11802)
CDK4/CycD3 = CDK4/CycD3 (Homo sapiens, UniProt P11802)
CDK6/CycD3 = CDK6/CycD3 (Homo sapiens, UniProt Q00534)
CK2a1 = CK2a1 (Homo sapiens, UniProt P68400)
EGFR = EGFR (Homo sapiens, UniProt P00533)
HIPK2 = HIPK2 (Homo sapiens, UniProt Q9H2X6)
HIPK3 = HIPK3 (Homo sapiens, UniProt Q9H422)
IRAK4 = IRAK4 (Homo sapiens, UniProt Q9NWZ3)
JAK3 = JAK3 (Homo sapiens, UniProt P52333)
JNK3 = JNK3 (Homo sapiens, UniProt P53779)
MET = MET (Homo sapiens, UniProt P08581)
MINK1 = MINK1 (Homo sapiens, UniProt Q8N4C8)
MYLK = MYLK (Homo sapiens, UniProt Q15746)
MYLK3 = MYLK3 (Homo sapiens, UniProt Q32MK0)
NDR2 = NDR2 (Homo sapiens, UniProt Q9Y2H1)
NEK2 = NEK2 (Homo sapiens, UniProt P51955)
NLK = NLK (Homo sapiens, UniProt Q9UBE8)
PKCd = PKCd (Homo sapiens, UniProt Q05655)
PRKX = PRKX (Homo sapiens, UniProt P51817)
TYK2 = TYK2 (Homo sapiens, UniProt P29597)
ULK2 = ULK2 (Homo sapiens, UniProt Q8IYT8)
WNK1 = WNK1 (Homo sapiens, UniProt Q9H4A3)
p38b = p38b (Homo sapiens, UniProt Q15759)
p38g = p38g (Homo sapiens, UniProt P53778)

Chain of IRAK4 (Q9NWZ3 whole entry): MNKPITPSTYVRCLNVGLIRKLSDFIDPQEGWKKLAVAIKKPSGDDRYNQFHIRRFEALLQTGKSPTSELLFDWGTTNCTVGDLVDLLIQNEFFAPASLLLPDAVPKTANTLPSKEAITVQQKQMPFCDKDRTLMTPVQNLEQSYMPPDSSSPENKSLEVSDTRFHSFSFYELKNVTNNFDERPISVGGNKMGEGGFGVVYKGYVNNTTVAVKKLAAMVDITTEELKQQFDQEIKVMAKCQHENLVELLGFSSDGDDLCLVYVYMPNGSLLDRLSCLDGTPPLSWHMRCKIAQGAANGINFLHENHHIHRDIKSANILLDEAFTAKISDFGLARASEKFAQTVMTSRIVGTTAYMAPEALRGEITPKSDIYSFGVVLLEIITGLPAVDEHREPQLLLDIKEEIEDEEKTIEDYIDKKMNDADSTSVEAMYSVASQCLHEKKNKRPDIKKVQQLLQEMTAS
Chain of NLK (Q9UBE8 whole entry): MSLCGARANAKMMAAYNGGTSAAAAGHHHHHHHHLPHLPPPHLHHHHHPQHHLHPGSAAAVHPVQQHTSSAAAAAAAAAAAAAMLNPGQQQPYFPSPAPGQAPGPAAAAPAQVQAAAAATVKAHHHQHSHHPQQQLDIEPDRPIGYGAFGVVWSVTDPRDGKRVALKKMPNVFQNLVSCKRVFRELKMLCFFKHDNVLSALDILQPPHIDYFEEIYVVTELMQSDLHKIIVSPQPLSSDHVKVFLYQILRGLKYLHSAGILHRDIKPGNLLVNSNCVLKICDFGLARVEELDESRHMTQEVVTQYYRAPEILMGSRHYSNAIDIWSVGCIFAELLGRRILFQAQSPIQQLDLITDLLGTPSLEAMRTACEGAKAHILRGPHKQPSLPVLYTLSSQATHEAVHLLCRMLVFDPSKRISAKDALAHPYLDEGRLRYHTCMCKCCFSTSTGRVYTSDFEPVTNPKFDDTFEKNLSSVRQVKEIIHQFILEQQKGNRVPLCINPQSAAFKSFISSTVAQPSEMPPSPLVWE
Chain of HIPK2 (Q9H2X6 whole entry): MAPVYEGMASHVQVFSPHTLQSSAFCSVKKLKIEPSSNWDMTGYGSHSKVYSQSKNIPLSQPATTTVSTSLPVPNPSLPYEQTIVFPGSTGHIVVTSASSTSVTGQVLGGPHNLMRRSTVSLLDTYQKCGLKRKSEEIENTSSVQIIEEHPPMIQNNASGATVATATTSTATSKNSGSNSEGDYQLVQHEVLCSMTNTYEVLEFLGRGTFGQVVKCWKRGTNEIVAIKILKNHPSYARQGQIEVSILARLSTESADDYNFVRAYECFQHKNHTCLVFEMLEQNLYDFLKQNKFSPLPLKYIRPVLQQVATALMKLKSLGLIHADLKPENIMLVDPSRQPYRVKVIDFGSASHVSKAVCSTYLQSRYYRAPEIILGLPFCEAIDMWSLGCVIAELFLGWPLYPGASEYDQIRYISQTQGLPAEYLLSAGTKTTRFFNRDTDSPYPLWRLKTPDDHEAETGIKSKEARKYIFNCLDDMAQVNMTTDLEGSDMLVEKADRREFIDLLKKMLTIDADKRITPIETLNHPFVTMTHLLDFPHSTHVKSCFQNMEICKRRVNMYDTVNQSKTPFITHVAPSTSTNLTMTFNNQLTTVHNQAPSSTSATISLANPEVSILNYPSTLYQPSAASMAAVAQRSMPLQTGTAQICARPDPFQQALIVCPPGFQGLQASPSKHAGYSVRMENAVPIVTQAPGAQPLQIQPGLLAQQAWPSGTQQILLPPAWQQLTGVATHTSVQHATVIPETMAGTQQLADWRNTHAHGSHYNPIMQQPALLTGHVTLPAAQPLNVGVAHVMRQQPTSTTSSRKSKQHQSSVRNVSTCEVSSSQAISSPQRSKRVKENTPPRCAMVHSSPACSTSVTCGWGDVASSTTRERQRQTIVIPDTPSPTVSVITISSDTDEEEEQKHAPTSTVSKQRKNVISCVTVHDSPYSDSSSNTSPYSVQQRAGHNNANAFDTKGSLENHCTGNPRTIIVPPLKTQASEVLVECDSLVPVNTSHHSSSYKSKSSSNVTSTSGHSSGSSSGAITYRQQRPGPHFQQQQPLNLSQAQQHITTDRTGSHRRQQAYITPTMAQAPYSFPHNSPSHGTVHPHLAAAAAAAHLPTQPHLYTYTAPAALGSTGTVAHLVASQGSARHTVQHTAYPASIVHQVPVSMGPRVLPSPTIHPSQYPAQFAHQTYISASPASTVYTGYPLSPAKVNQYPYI
Chain of CDK6/CycD3 (Q00534 whole entry): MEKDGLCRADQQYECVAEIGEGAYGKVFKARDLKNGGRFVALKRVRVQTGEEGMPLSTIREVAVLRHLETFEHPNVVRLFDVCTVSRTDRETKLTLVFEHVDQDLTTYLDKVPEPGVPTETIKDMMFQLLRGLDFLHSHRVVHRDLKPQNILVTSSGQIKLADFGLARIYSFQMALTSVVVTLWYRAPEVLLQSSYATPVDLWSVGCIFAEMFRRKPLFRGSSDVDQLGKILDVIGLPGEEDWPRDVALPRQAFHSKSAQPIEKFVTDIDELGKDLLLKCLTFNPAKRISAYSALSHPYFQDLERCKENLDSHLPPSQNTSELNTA
Chain of CDK6/CycD3 (P30281 whole entry partner): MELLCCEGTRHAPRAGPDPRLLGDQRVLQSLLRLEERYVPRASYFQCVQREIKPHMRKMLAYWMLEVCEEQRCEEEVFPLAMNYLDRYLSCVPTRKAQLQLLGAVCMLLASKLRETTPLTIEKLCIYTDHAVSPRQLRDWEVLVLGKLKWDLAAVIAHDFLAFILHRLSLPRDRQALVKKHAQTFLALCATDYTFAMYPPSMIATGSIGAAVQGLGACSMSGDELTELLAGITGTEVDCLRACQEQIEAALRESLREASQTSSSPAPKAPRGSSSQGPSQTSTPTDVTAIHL
Chain of MYLK3 (Q32MK0 whole entry): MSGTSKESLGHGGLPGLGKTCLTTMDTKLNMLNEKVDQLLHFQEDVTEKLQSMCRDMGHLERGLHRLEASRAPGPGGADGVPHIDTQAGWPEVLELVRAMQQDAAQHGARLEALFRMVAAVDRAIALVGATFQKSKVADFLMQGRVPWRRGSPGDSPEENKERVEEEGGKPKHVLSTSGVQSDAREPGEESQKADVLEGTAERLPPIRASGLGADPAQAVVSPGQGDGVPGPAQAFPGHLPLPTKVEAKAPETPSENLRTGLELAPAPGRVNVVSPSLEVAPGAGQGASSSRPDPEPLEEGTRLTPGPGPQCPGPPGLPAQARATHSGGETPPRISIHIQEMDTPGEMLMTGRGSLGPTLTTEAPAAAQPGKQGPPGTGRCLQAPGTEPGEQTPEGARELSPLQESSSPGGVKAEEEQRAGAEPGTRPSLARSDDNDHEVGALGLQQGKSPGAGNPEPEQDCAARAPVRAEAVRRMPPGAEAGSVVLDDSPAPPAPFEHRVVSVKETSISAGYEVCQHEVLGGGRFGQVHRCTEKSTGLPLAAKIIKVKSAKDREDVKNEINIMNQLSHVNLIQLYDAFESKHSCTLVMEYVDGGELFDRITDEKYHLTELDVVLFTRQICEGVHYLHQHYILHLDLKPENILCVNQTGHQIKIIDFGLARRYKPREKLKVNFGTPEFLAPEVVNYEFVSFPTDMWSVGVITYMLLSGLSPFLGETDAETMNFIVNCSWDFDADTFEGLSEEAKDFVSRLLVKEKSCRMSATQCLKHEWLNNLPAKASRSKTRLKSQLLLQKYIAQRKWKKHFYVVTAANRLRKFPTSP
Chain of MINK1 (Q8N4C8 whole entry): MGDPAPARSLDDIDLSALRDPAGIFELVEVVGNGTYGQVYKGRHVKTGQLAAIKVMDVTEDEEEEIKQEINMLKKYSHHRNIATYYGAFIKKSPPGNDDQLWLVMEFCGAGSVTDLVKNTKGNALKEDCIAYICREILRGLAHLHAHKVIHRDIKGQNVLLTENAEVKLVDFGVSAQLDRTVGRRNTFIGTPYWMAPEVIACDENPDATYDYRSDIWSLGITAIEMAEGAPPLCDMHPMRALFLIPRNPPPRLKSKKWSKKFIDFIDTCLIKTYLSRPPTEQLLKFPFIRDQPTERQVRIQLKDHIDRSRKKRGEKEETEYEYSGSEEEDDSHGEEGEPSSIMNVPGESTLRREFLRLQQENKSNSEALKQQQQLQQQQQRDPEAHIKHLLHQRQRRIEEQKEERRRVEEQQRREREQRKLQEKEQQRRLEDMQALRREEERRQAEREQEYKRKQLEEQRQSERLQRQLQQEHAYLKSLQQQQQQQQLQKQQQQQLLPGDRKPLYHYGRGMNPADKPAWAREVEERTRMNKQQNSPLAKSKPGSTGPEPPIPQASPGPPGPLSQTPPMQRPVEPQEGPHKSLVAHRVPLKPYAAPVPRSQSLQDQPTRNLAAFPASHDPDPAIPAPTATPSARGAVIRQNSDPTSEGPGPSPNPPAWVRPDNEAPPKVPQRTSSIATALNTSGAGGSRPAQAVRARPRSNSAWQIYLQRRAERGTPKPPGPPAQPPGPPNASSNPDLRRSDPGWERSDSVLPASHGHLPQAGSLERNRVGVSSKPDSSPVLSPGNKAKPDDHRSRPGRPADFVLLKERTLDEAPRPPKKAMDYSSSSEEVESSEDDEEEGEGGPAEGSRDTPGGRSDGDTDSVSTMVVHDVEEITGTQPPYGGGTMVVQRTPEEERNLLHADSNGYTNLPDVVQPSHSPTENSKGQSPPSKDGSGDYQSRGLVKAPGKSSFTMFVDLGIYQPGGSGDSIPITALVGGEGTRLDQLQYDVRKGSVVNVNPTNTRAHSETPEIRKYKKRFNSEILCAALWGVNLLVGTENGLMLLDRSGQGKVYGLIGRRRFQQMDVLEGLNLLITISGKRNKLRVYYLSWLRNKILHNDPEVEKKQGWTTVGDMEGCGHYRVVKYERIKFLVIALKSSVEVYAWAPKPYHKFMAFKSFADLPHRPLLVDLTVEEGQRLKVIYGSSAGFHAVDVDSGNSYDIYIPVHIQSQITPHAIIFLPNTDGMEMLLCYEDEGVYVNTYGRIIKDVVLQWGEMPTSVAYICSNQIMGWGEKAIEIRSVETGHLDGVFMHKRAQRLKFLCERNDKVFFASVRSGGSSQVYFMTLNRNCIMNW

In the case of `O=C1NCCCCCNc2nc(c3ccccc3n2)Nc2cc1[nH]n2` [21c, (Z)-3^1H-2,5,11-triaza-1(4,2)-quinazolina-3(3,5)-pyrazolacycloundecaphan-4-one], the “21c Remaining activity, percent of control [%]” value (AKT2) is reported as 90.3%, the “21c Remaining activity, percent of control [%]” value (ASK1) is reported as 97.7% and the “21c Remaining activity, percent of control [%]” value (AXL) is reported as 80.2%. For the same compound, the “21c Remaining activity, percent of control [%]” value (BRSK2) was 97.8%, the “21c Remaining activity, percent of control [%]” value (CAMK2G) was 132.6% and the “21c Remaining activity, percent of control [%]” value (CDK18) was 96.7%. For the same compound, the “21c Remaining activity, percent of control [%]” value (CDK2/CycD1) was 121.3%, the “21c Remaining activity, percent of control [%]” value (CDK4) was 84.5% and the “21c Remaining activity, percent of control [%]” value (CDK4/CycD3) was 111.1%. The “21c Remaining activity, percent of control [%]” value (CDK6/CycD3) was 85.3%, the “21c Remaining activity, percent of control [%]” value (CK2a1) was 95.5% and the “21c Remaining activity, percent of control [%]” value (EGFR) was 100.0%. The “21c Remaining activity, percent of control [%]” value (HIPK2) was 74.8%, the “21c Remaining activity, percent of control [%]” value (HIPK3) was 90.8% and the “21c Remaining activity, percent of control [%]” value (IRAK4) was 87.3%. The “21c Remaining activity, percent of control [%]” value (JAK3) was 115.4%, the “21c Remaining activity, percent of control [%]” value (JNK3) was 84.9% and the “21c Remaining activity, percent of control [%]” value (MET) was 107.2%. The “21c Remaining activity, percent of control [%]” value (MINK1) was 70.0%, the “21c Remaining activity, percent of control [%]” value (MYLK) was 68.9% and the “21c Remaining activity, percent of control [%]” value (MYLK3) was 86.4%. For the same compound, the “21c Remaining activity, percent of control [%]” value (NDR2) was 93.9%, the “21c Remaining activity, percent of control [%]” value (NEK2) was 93.5% and the “21c Remaining activity, percent of control [%]” value (NLK) was 111.9%. The “21c Remaining activity, percent of control [%]” value (PKCd) was 91.4%, the “21c Remaining activity, percent of control [%]” value (PRKX) was 93.9% and the “21c Remaining activity, percent of control [%]” value (TYK2) was 116.8%. The “21c Remaining activity, percent of control [%]” value (ULK2) was 96.0%, the “21c Remaining activity, percent of control [%]” value (WNK1) was 94.9% and the “21c Remaining activity, percent of control [%]” value (p38b) was 92.9%. For the same compound, the “21c Remaining activity, percent of control [%]” value (p38g) was 88.6%.
